# Data taken from patent US11331369B2, “Endoparasitic depsipeptides” (Zoetis Services LLC, priority 2017, dated 2022).
# Columns and labels:
# [1] = system: microfilariae of Dirofilaria immitis; assay: Dirofilaria immitis, Microfilaria (DiMF) In vitro Assay; assay type: cell-based; details: 72 h, read-out: DiMF Minimum Effective Dose (MED), approximately 72 hours incubation, microfilariae assessed for survival or paralysis
# [2] = system: 4th stage larvae (L4) of Dirofilaria immitis; assay: Dirofilaria immitis, L4 Stage (DiL4) In Vitro Assay; assay type: cell-based; details: Dirofilaria immitis, 72 h, read-out: DiL4 Minimum Effective Dose (MED), approximately 72 hours incubation; L4 larvae assessed for survival or paralysis
Compound,minimal effective concentration [1] [µM],minimal effective concentration [2] [µM]
"CC(C)C[C@H]1C(=O)O[C@H](Cc2ccc(Cn3cc(COC(C)C)cn3)cc2)C(=O)N(C)[C@@H](CC(C)C)C(=O)O[C@H](C)C(=O)N(C)[C@@H](CC(C)C)C(=O)O[C@H](Cc2ccc(Cn3cc(COC(C)C)cn3)cc2)C(=O)N(C)[C@@H](CC(C)C)C(=O)O[C@H](C)C(=O)N1C [Example 1b-184, (3S,6R,9S,12R,15S,18R,21S,24R)-3,9,15,21-tetraisobutyl-6,18-bis(4-((4-(isopropoxymethyl)-1H-pyrazol-1-yl)methyl)benzyl)-4,10,12,16,22,24-hexamethyl-1,7,13,19-tetraoxa-4,10,16,22-tetraazacyclotetracosan-2,5,8,11,14,17,20,23-octaone]",0.001 to 0.01,0.001 to 0.01
"CCCc1ccnn1Cc1ccc(C[C@H]2OC(=O)[C@H](CC(C)C)N(C)C(=O)[C@@H](C)OC(=O)[C@H](CC(C)C)N(C)C(=O)[C@@H](Cc3ccc(Cn4nccc4CCC)cc3)OC(=O)[C@H](CC(C)C)N(C)C(=O)[C@@H](C)OC(=O)[C@H](CC(C)C)N(C)C2=O)cc1 [Example 1b-205, (3S,6R,9S,12R,15S,18R,21S,24R)-3,9,15,21-tetraisobutyl-4,6,10,16,18,22-hexamethyl-12,24-bis(4-((5-propyl-1H-pyrazol-1-yl)methyl)benzyl)-1,7,13,19-tetraoxa-4,10,16,22-tetraazacyclotetracosan-2,5,8,11,14,17,20,23-octaone]",0.001 to 0.01,0.0001 to 0.001
"CC(C)Cc1ccnn1Cc1ccc(C[C@H]2OC(=O)[C@H](CC(C)C)N(C)C(=O)[C@@H](C)OC(=O)[C@H](CC(C)C)N(C)C(=O)[C@@H](Cc3ccc(Cn4nccc4CC(C)C)cc3)OC(=O)[C@H](CC(C)C)N(C)C(=O)[C@@H](C)OC(=O)[C@H](CC(C)C)N(C)C2=O)cc1 [Example 1b-209, (3S,6R,9S,12R,15S,18R,21S,24R)-3,9,15,21-tetraisobutyl-6,18-bis(4-((5-isobutyl-1H-pyrazol-1-yl)methyl)benzyl)-4,10,12,16, 22,24-hexamethyl-1,7,13,19-tetraoxa-4,10,16,22-tetraazacyclotetracosan-2,5,8,11,14,17,20,23-octaone]",0.01 to 0.1,0.0001 to 0.001
"CC(C)C[C@H]1C(=O)O[C@H](Cc2ccc(Cn3cc(C#N)cn3)cc2)C(=O)N(C)[C@@H](CC(C)C)C(=O)O[C@H](C)C(=O)N(C)[C@@H](CC(C)C)C(=O)O[C@H](Cc2ccccc2)C(=O)N(C)[C@@H](CC(C)C)C(=O)O[C@H](C)C(=O)N1C [Example 2-10, 1-(4-(((2R,5S,8R,11S,14R,17S,20R,23S)-14-benzyl-5,11,17,23-tetraisobutyl-4,8,10,16,20,22-hexamethyl-3,6,9,12,15,18,21,24-octaoxo-1,7,13,19-tetraoxa-4,10,16,22-tetraazacyclotetracosan-2-yl)methyl)benzyl)-1H-pyrazole-4-carbonitrile]",0.001 to 0.01,0.0001 to 0.001
"CC(C)C[C@H]1C(=O)O[C@H](Cc2ccc(Cn3cc(Cl)cn3)cc2)C(=O)N(C)[C@@H](CC(C)C)C(=O)O[C@H](C)C(=O)N(C)[C@@H](CC(C)C)C(=O)O[C@H](Cc2ccccc2)C(=O)N(C)[C@@H](CC(C)C)C(=O)O[C@H](C)C(=O)N1C [Example 2-25, (3S,6R,9S,12R,15S,18R,21S,24R)-6-benzyl-18-(4-((4-chloro-1H-pyrazol-1-yl)methyl)benzyl)-3,9,15,21-tetraisobutyl-4,10,12,16,22,24-hexamethyl-1,7,13,19-tetraoxa-4,10,16,22-tetraazacyclotetracosan-2,5,8,11,14,17,20,23-octaone]",0.001 to 0.01,0.0001 to 0.001
"CC(C)C[C@H]1C(=O)O[C@H](Cc2ccc(Cn3cc(I)cn3)cc2)C(=O)N(C)[C@@H](CC(C)C)C(=O)O[C@H](C)C(=O)N(C)[C@@H](CC(C)C)C(=O)O[C@H](Cc2ccccc2)C(=O)N(C)[C@@H](CC(C)C)C(=O)O[C@H](C)C(=O)N1C [Example 2-41, (3S,6R,9S,12R,15S,18R,21S,24R)-6-benzyl-18-(4-((4-iodo-1H-pyrazol-1-yl)methyl)benzyl)-3,9,15,21-tetraisobutyl-4,10,12,16,22,24-hexamethyl-1,7,13,19-tetraoxa-4,10,16,22-tetraazacyclotetracosan-2,5,8,11,14,17,20,23-octaone]",0.001 to 0.01,0.0001 to 0.001
"CC(C)C[C@H]1C(=O)O[C@H](Cc2ccc(Cn3nc(C(F)(F)F)cc3C(F)(F)F)cc2)C(=O)N(C)[C@@H](CC(C)C)C(=O)O[C@H](C)C(=O)N(C)[C@@H](CC(C)C)C(=O)O[C@H](Cc2ccccc2)C(=O)N(C)[C@@H](CC(C)C)C(=O)O[C@H](C)C(=O)N1C [Example 2-55, (3S,6R,9S,12R,15S,18R,21S,24R)-6-benzyl-18-(4-((3,5-bis(trifluoromethyl)-1H-pyrazol-1-yl)methyl)benzyl)-3,9,15,21-tetraisobutyl-4,10,12,16,22,24-hexamethyl-1,7,13,19-tetraoxa-4,10,16,22-tetraazacyclotetracosan-2,5,8,11,14,17,20,23-octaone]",0.001 to 0.01,0.0001 to 0.001
"CC(C)C[C@H]1C(=O)O[C@H](Cc2ccc(Cn3nc(C#N)cc3C#N)cc2)C(=O)N(C)[C@@H](CC(C)C)C(=O)O[C@H](C)C(=O)N(C)[C@@H](CC(C)C)C(=O)O[C@H](Cc2ccccc2)C(=O)N(C)[C@@H](CC(C)C)C(=O)O[C@H](C)C(=O)N1C [Example 2-62, 1-(4-(((2R,5S,8R,11S,14R,17S,20R,23S)-14-benzyl-5,11,17,23-tetraisobutyl-4,8,10,16,20,22-hexamethyl-3,6,9,12,15,18,21,24-octaoxo-1,7,13,19-tetraoxa-4,10,16,22-tetraazacyclotetracosan-2-yl)methyl)benzyl)-1H-pyrazole-3,5-dicarbonitrile]",0.001 to 0.01,0.0001 to 0.001
"CC(C)C[C@H]1C(=O)O[C@H](Cc2ccc(Cn3cc(C#Cc4ccccc4)cn3)cc2)C(=O)N(C)[C@@H](CC(C)C)C(=O)O[C@H](C)C(=O)N(C)[C@@H](CC(C)C)C(=O)O[C@H](Cc2ccccc2)C(=O)N(C)[C@@H](CC(C)C)C(=O)O[C@H](C)C(=O)N1C [Example 2-64, (3S,6R,9S,12R,15S,18R,21S,24R)-6-benzyl-3,9,15,21-tetraisobutyl-4,10,12,16,22,24-hexamethyl-18-(4-((4-(phenylethynyl)-1H-pyrazol-1-yl)methyl)benzyl)-1,7,13,19-tetraoxa-4,10,16,22-tetraazacyclotetracosan-2,5,8,11,14,17,20,23-octaone]",0.01 to 0.1,0.0001 to 0.001
"CC#Cc1cnn(Cc2ccc(C[C@H]3OC(=O)[C@H](CC(C)C)N(C)C(=O)[C@@H](C)OC(=O)[C@H](CC(C)C)N(C)C(=O)[C@@H](Cc4ccccc4)OC(=O)[C@H](CC(C)C)N(C)C(=O)[C@@H](C)OC(=O)[C@H](CC(C)C)N(C)C3=O)cc2)c1 [Example 2-76, (3S,6R,9S,12R,15S,18R,21S,24R)-6-benzyl-3,9,15,21-tetraisobutyl-4,10,12,16,22,24-hexamethyl-18-(4-((4-(prop-1-yn-1-yl)-1H-pyrazol-1-yl)methyl)benzyl)-1,7,13,19-tetraoxa-4,10,16,22-tetraazacyclotetracosan-2,5,8,11,14,17,20,23-octaone]",0.001 to 0.01,0.0001 to 0.001
